For ten compounds, EC50 and Emax results are on record in patent US8003660B2, “Modulators of muscarinic receptors” (Vertex Pharmaceuticals Incorporated, priority 2006, dated 2011).

What all share (format): cell-based
For assay [1], the target named is T1, M1 muscarinic receptor (Homo sapiens, UniProt P11229).
T1 construct: expressed in transfected cells; host or cells: CHO (M1-CHO)
T1 sequence (P11229 1-460): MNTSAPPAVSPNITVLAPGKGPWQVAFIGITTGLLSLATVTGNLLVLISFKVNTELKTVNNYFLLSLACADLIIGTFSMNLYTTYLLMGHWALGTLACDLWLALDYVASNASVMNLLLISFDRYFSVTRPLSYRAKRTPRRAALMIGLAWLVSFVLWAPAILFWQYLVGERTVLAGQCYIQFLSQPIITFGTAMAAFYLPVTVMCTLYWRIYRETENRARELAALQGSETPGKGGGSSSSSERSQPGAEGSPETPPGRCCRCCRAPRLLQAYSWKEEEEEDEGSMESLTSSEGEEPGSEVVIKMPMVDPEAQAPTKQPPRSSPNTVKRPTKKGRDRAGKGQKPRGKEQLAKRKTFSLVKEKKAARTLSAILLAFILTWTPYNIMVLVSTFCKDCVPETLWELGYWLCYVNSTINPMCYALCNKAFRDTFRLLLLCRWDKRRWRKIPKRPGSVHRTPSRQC
In words: Functional mobilization of intracellular calcium (FLIPR) in CHO cells expressing M1. To be noted: for EC50: CHO cells expressing M1, FLIPR calcium; for Emax: CHO, 100% = maximum response obtained with the Carbachol control, read-out: M1 Efficacy. Put shortly:
(§1)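 Calcium flux is read on FLIPR over 60 sec at 488/540 nm in muscarinic-receptor CHO lines. Antagonist mode adds carbachol at EC80 after 15 min compound preincubation or with simultaneous co-application. Agonist mode adds compound alone. Cells carry Fluo-3 or Calcium 3 dye in probenecid-containing pH 7.4 buffer, 0.5% DMSO final.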
(A change in cytosolic calcium serves as a functional read-out for many receptors and channels.)

Assay [2] has as its target T2, M2 muscarinic receptor (Homo sapiens, UniProt P08172).
T2 construct: expressed in transfected cells; host or cells: CHO (M2-CHO)
T2 sequence (P08172 1-466): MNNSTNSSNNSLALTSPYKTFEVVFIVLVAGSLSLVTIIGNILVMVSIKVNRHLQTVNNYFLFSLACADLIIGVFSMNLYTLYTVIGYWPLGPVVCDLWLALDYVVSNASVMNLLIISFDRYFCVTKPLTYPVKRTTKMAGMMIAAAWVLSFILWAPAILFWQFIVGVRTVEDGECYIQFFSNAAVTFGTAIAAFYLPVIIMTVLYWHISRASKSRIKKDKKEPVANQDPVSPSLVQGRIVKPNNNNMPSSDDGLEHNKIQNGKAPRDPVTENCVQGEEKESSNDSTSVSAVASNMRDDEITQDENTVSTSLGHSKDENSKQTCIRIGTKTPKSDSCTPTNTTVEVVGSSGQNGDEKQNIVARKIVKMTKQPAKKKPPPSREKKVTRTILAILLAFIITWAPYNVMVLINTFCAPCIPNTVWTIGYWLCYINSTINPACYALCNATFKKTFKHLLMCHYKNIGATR
In words: Functional mobilization of intracellular calcium (FLIPR) in CHO cells expressing M2. To be noted: for EC50: CHO cells expressing M2, FLIPR calcium; for Emax: CHO, 100% = maximum response obtained with the Carbachol control, read-out: M2 Efficacy. An outline of the steps: as §1

Assay [3] deals with T3, M3 muscarinic receptor (Homo sapiens, UniProt P20309).
T3 construct: expressed in transfected cells; host or cells: CHO (M3-CHO)
T3 sequence (P20309 whole entry): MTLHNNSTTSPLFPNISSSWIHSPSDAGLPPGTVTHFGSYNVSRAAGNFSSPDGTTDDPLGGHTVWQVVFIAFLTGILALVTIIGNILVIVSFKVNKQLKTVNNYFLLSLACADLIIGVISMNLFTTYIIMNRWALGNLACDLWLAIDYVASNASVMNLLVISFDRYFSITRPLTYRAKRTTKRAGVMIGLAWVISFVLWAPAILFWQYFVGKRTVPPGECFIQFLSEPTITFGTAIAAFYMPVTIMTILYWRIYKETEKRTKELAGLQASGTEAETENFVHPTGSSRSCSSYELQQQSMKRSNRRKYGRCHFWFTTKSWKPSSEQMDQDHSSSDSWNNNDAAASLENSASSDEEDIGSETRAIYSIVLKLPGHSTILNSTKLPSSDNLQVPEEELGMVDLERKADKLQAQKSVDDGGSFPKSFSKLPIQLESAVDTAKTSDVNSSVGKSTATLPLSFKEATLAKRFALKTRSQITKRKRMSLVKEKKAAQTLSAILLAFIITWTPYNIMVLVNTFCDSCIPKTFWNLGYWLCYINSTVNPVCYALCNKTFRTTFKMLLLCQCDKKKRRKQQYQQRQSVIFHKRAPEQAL
In words: Functional mobilization of intracellular calcium (FLIPR) in CHO cells expressing M3. To be noted: for EC50: CHO cells expressing M3, FLIPR calcium; for Emax: CHO, 100% = maximum response obtained with the Carbachol control, read-out: M3 Efficacy. Put shortly:
as §1

The target of assay [4] is T4, M4 muscarinic receptor (Homo sapiens, UniProt P08173).
T4 construct: expressed in transfected cells; host or cells: CHO (M4-CHO)
T4 sequence (P08173 1-479): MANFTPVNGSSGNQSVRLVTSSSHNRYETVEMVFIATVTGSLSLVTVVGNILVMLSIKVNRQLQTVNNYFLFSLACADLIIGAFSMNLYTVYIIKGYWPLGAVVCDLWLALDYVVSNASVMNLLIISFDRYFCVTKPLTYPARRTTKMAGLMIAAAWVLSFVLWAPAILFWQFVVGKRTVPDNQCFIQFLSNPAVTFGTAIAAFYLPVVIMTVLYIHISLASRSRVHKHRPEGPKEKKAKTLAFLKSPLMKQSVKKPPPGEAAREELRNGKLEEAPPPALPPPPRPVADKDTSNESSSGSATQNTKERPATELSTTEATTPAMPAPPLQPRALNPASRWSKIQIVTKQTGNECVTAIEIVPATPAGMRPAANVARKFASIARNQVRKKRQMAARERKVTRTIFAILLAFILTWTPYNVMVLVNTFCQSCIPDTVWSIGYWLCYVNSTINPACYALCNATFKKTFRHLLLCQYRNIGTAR
In words: Functional mobilization of intracellular calcium (FLIPR) in CHO cells expressing M4. To be noted: for EC50: CHO cells expressing M4, FLIPR calcium; for Emax: CHO, 100% = maximum response obtained with the Carbachol control, read-out: M4 Efficacy. Put shortly: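 Recombinant CHO cells loaded with Fluo-3 AM or Calcium 3 dye in pH 7.4 buffer containing 1 mM probenecid, with 0.5% final DMSO. For agonism, compound is added directly. For inhibition, it is preincubated 15 min, or co-applied, before carbachol at EC80. FLIPR fluorescence (ex 488, em 540 nm) is recorded for 60 s.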

SMILES strings stand for the structures. Bounds are passed on as bounds.

By EC50 is commonly meant the concentration giving half of the maximal effect. Take `C[C@H](C(=O)N[C@@H]1CCC2(CCN(CCC(C)(C)C)CC2)c2ccccc21)N1CCCCC1=O` [compound 113]: the EC50 in assay [1] was more than 5000 nM; in assay [2], more than 5000 nM; in assay [3], more than 5000 nM; in assay [4], less than 2000 nM. Also, the Emax in assay [1] was less than 25%; in assay [2], less than 25%; in assay [3] it was less than 25%; in assay [4], 25 to 100%.

For `CCn1cc(C(=O)N[C@H]2CCC3(CCN(CCC(C)(C)C)CC3)c3ccccc32)cn1` [compound 115], the 50% effective concentration (EC50) in assay [1] was less than 2000 nM; in assay [2], less than 2000 nM; in assay [3], more than 5000 nM; in assay [4], less than 2000 nM. Besides, the Emax in assay [1] was 25 to 100%; in assay [2], 25 to 100%; in assay [3], less than 25%; in assay [4], 25 to 100%.

In the case of `CCN(C(=O)[C@@H](C)OC)[C@H]1CCC2(CCN(CCC(C)(C)C)CC2)c2ccccc21` [compound 116], the EC50 in assay [1] was more than 5000 nM; in assay [2], more than 5000 nM; in assay [3], more than 5000 nM; in assay [4], less than 2000 nM. Moreover, the Emax was 25 to 100% in assay [1], less than 25% in assay [2], less than 25% in assay [3] and 25 to 100% in assay [4].

`CC(C)(C)CCN1CCC2(CC1)CC(F)(F)C(=O)c1ccccc12` [compound 117]: the EC50 in assay [1] is less than 2000 nM; in assay [2], less than 2000 nM; in assay [3], more than 5000 nM; in assay [4], less than 2000 nM. Besides, the Emax is 25 to 100% in assay [1], 25 to 100% in assay [2], less than 25% in assay [3] and 25 to 100% in assay [4].

`Cn1cncc1C(=O)N[C@@H]1CCC2(CCN(CCC(C)(C)C)CC2)c2ccccc21` [compound 118]: the EC50 is 2000 to 5000 nM in assay [1], more than 5000 nM in assay [2], more than 5000 nM in assay [3] and less than 2000 nM in assay [4]. Besides, the Emax in assay [1] was 25 to 100%; in assay [2], less than 25%; in assay [3], less than 25%; in assay [4] it was 25 to 100%.

For `CC(C)(C)CCN1CCC2(CC[C@H](NC(=O)C3CC3)c3ccc(F)cc32)CC1` [compound 119], the EC50 was less than 2000 nM in assay [1], less than 2000 nM in assay [2], more than 5000 nM in assay [3] and less than 2000 nM in assay [4]. The Emax in assay [1] was 25 to 100%; in assay [2], 25 to 100%; in assay [3], less than 25%; in assay [4], 25 to 100%.

Regarding `CC(C)(C)CCN1CCC2(CC1)CC(F)(F)C(O)c1ccccc12` (centres unmarked) [compound 120], the EC50 in assay [1] is less than 2000 nM; in assay [2], less than 2000 nM; in assay [3] it was more than 5000 nM; in assay [4], less than 2000 nM. The Emax is 25 to 100% in assay [1], 25 to 100% in assay [2], less than 25% in assay [3] and 25 to 100% in assay [4].

Turning to `CC(=O)N1CCCC(C(=O)N[C@H]2CCC3(CCN(CCC(C)(C)C)CC3)c3ccccc32)C1` (some centres unmarked) [compound 121], the EC50 in assay [1] is less than 2000 nM; in assay [2] it was more than 5000 nM; in assay [3], more than 5000 nM; in assay [4] it was less than 2000 nM. Besides, the Emax in assay [1] is 25 to 100%; in assay [2], less than 25%; in assay [3] it was less than 25%; in assay [4], 25 to 100%.

Take `CC(=O)N(C1CC1)C1CCC2(CCN(CCC(C)(C)C)CC2)c2ccccc21` (centres unmarked) [compound 122]: the concentration giving a half-maximal response (EC50) in assay [1] was less than 2000 nM; in assay [2], more than 5000 nM; in assay [3], more than 5000 nM; in assay [4] it was less than 2000 nM. In addition, the Emax was 25 to 100% in assay [1], less than 25% in assay [2], less than 25% in assay [3] and 25 to 100% in assay [4].

Regarding `CC(=O)N(C)[C@H]1CCC2(CCN(CCC(C)(C)C)CC2)c2ccccc21` [compound 123], the EC50 in assay [1] is less than 2000 nM; in assay [2] it was more than 5000 nM; in assay [3], more than 5000 nM; in assay [4], less than 2000 nM. Besides, the Emax was 25 to 100% in assay [1], less than 25% in assay [2], less than 25% in assay [3] and 25 to 100% in assay [4].
